Experiments:
glucocerebrosidase = molecular target: T1, glucocerebrosidase (Homo sapiens, UniProt P04062); assay: Kinetics of hydrolysis of glucosylated precursors by glucocerebrosidase of a stratum corneum extract; assay type: biochemical; conditions: for Quantity of molecule released: phthalate buffer pH 5.6, 24 hours incubation, freeze-dried cutaneous extract, three strippings of 15 cm^2; for Release of the active agent from its glucosylated precursor: from the glucopyranoside precursor
T1 construct: a freeze-dried cutaneous extract obtained after taking a sample by three successive strippings of 15 cm^2; from tissue; host or cells: stratum corneum (powdered, freeze-dried cutaneous extract from three successive strippings)
T1 sequence (P04062 40-536): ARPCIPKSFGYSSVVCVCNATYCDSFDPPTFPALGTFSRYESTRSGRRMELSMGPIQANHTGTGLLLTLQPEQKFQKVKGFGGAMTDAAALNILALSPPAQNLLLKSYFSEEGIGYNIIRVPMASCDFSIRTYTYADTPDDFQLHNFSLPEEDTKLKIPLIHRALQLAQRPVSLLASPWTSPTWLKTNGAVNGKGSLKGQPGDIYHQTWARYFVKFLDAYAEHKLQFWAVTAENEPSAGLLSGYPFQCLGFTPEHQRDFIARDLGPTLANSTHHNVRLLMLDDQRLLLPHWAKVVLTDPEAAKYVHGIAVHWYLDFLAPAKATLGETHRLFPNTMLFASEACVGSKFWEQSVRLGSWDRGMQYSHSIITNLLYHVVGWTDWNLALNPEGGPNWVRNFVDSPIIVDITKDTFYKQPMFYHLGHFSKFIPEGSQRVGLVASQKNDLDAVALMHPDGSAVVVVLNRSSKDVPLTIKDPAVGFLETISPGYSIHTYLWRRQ
Experimental: The precursor and the stratum corneum sample in powdered form are incorporated into a liquid medium buffered with a phthalate buffer at pH 5.6. The mixture is incubated for 24 hours and the quantity of active agent released is assayed by densitometry on a thin-layer chromatography plate.
The following table gives, for various glucosylated precursors, the quantity of molecule released following their hydrolysis by glucocerebrosidase over 24 hours by a freeze-dried cutaneous extract obtained after taking a sample by three successive strippings of 15 cm^2.

[1] = Antioxidant activity against the peroxidation of squalene, MDA as indicator
Experimental: (§1) The concentration of MDA released is measured by complexing with thiobarbituric acid in an acidic medium. The chromogenic complex formed absorbs at 532 nm. Its quantification is monitored by fluorimetry.
The antioxidant activity of various compounds against the peroxidation of an unsaturated lipid, squalene, is measured.

[2] = Nonirradiated; cream containing 0.4%
Excerpt: The photostability of delta-tocopheryl-glucopyranoside and that of delta-tocopherol are compared.
Samples of a cream containing 0.4% of delta-tocopheryl-glucopyranoside or of delta-tocopherol are irradiated with a 28 J/cm^2 incident light of 290 to 800 nm (5 DEM).

[3] = MDA released in a cream with borage oil containing vitamin E after two hour solar exposure (thiobarbituric acid complex); conditions: for Concentration of MDA released: two hour solar exposure
Experimental: The concentration of malonaldehyde (MDA) released in a cream containing increasing quantities of an antioxidant, vitamin E (or alpha-tocopherol), which is subjected to an oxidative stress, is measured.
The cream containing vitamin E also contains borage oil which is naturally rich in linoleic acid. Oxidative stress consists in a two hour solar exposure.
as §1

Row | Quantity of molecule released (glucocerebrosidase) | SMILES | Quantity of MDA released [1] | other results
1 | 100 ± 7 n mol/hour | Cc1cc(=O)oc2cc(OC3O[C@H](CO)[C@@H](O)[C@H](O)[C@H]3O)ccc12 (stereo partly shown) [4-methylumbelliferyl-glucopyranoside, 4-methylumbelliferyl glucopyranoside] | – | –
2 | 14.8 ± 1.2 n mol/hour | CC(C)CCCC(C)CCCC(C)CCCC1(C)CCc2cc(OC3OC(CO)C(O)C(O)C3O)ccc2O1 (stereo not shown) [Tocol-glucopyranoside, tocol-glucopyranoside] | 142 ± 28 μg MDA | –
3 | 0 n mol/hour | Cc1c(OC2O[C@H](CO)[C@@H](O)[C@H](O)[C@H]2O)cc2c(c1C)OC(C)(CCCC(C)CCCC(C)CCCC(C)C)CC2 (stereo partly shown) [γ-Tocopheryl-glucopyranoside] | – | –

The next lines start with the molecule.

Row | SMILES | Quantity of molecule released (glucocerebrosidase) | Quantity of MDA released [1] | other results
4 | Cc1cc(O)cc2c1O[C@](C)(CCC[C@H](C)CCC[C@H](C)CCCC(C)C)CC2 [Delta-tocopherol, delta-tocopherol] | – | 7.2 ± 1.7 μg MDA | Amount of compound in the cream [2]: 310 ± 14 Micromoles
5 | Cc1cc(O[C@@H]2O[C@H](CO)[C@@H](O)[C@H](O)[C@H]2O)cc2c1O[C@](C)(CCC[C@H](C)CCC[C@H](C)CCCC(C)C)CC2 [Delta-tocopherol-glucopyranoside] | 14.3 ± 1 n mol/hour | 128 ± 38 μg MDA | Amount of compound in the cream [2]: 311 ± 7 Micromoles
6 | OC[C@H]1OC(Oc2ccccc2)[C@H](O)[C@@H](O)[C@@H]1O (stereo partly shown) [Phenylglucopyranoside] | 0.2 ± 0.5 n mol/hour | – | –
7 | CC(C)CCCC(C)CCCC(C)CCCC1(C)CCc2cc(O)ccc2O1 (stereo not shown) [Tocol] | – | 6 ± 1.9 μg MDA | –
8 | CCCCCCCCCCCCCCCC(=O)Oc1c(C)c(C)c2c(c1C)CCC(C)(CCCC(C)CCCC(C)CCCC(C)C)O2 (stereo not drawn) [Vitamin E palmitate, alpha-tocopherol palmitate] | – | 182.7 ± 39 μg MDA | –
9 | Cc1c(C)c2c(c(C)c1O)CC[C@@](C)(CCC[C@H](C)CCC[C@H](C)CCCC(C)C)O2 [vitamin E, alpha-tocopherol] | – | – | Release of the active agent from its glucosylated precursor (glucocerebrosidase): not released; Concentration of MDA released ([3]; 0.05 % by mass vitamin E in the cream): 1.2 ± 0.15 μg MDA/100 mg cream; Concentration of MDA released ([3]; 0.1 % by mass vitamin E in the cream): 1.9 ± 0.20 μg MDA/100 mg cream; Concentration of MDA released ([3]; 0.15 % by mass vitamin E in the cream): 2.0 ± 0.20 μg MDA/100 mg cream; Pro-inflammatory effect ([3]; cream rich in polyunsaturated fatty acid): causes a pro-inflammatory effect
10 | Cc1c(C)c2c(c(C)c1OC1O[C@H](CO)[C@@H](O)[C@H](O)[C@H]1O)CCC(C)(CCCC(C)CCCC(C)CCCC(C)C)O2 (stereo partly drawn) [α-Tocopheryl-glucopyranoside] | 0 n mol/hour | – | –
11 | Cc1c(O)cc2c(c1C)O[C@](C)(CCC[C@H](C)CCC[C@H](C)CCCC(C)C)CC2 [γ-tocopherol] | – | – | Release of the active agent from its glucosylated precursor (glucocerebrosidase): not released

From patent US6569906B1, “Composition containing a precursor capable of being hydrolysed by glucocerebrosidase” (Pierre Fabre Dermo-Cosmetique, priority 1998, dated 2003)
